Earlier results on 1 compound are cited in publication PMC8405091, “Microwave-assisted Phospha-Michael addition reactions in the 13α-oestrone series and in vitro antiproliferative properties” (Journal of Enzyme Inhibition and Medicinal Chemistry, 2021).

Molecules are shown by their SMILES.

The subject of the data set is certain cancer cell lines. Details: method as in PMID 25845933. The following applies: cited from earlier work.

Regarding `CCc1ccc(-c2cn([C@H]3C[C@H]4[C@@H]5CCc6cc(OCc7ccccc7)ccc6[C@H]5CC[C@@]4(C)[C@@H]3O)nn2)cc1` [Compound 28], the IC50 result is listed as “low micromolar range”.
